The subject of one experiment is MOLM-13 cells. Nature of the experiment: Cell proliferation assay MOLM-13, method 1 (alamarBlue). Format: cell-based. The following applies: Homo sapiens, acute myeloid leukaemia cells, 4000 cells/well, 96-well, 96 hours. On the procedure:
(§1) In accordance with the invention, the ability of the substances to inhibit cell proliferation was determined. Cell viability was determined by means of the alamarBlue® reagent (Invitrogen) in a Victor X3 Multilabel Reader (Perkin Elmer). The excitation wavelength was 530 nm and the emission wavelength […].
The MOLM-13 cells (DSMZ, ACC 554) were seeded at a concentration of 4000 cells/well in 100 μl of growth medium (RPMI1640, 10% FCS) on 96-well microtitre plates (method 1).
(§2) After overnight incubation at 37° C., the fluorescence values (CI values) were determined. Then the plates were treated with various substance dilutions (1E-5 M, 3E-6 M, 1E-6 M, 3E-7 M, 1E-7 M, 3E-8 M, 1E-8 M) and incubated at 37° C. over 96 hours (MOLM-13, B16F10, CHL-1 cells) or 120 hours (MOLP-8 cells). Subsequently, the fluorescence values were determined (CO values). For the data analysis, the CI values were subtracted from the CO values and the results were compared between cells which had been treated with various dilutions of the substance or only with buffer solution. The IC50 values (substance concentration needed for 50% inhibition of cell proliferation) were calculated therefrom.
(§3) The substances were tested in the cell lines in Table 2, which represent the indications specified by way of example: […]

Experiment [1] deals with T1, BRD4 bromo domain 1 [BRD4(1)] (Homo sapiens, UniProt O60885).
T1 construct: N-terminally His6-tagged BRD4(1) (amino acids 67-152); made in house; host or cells: E. coli
Briefly: BRD4(1)/acetylated peptide H4 TR-FRET binding assay. The note with it: His6-BRD4(1) (aa 67-152) vs acetylated histone H4 peptide. The procedure, abridged: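 His6-tagged BRD4(1) (aa 67-152, E. coli-expressed; 10 nM) pre-incubated with compound (0.1 nM–20 μM, duplicates) for 10 min at 22 °C in HEPES pH 7.5 buffer, then biotinylated tetra-acetylated H4 peptide with TR-FRET reagents added. After 1 h at 22 °C and ≥3 h at 4 °C, the 665/620 nm ratio was read; IC50 from a 4-parameter fit.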

The test system of another experiment is MOLP-8 cells. Nature of the experiment: Cell proliferation assay MOLP-8 (alamarBlue). The experiment is classed as cell-based. The following applies: Homo sapiens, multiple myeloma cells, 120 hours. On the procedure:
as §1
The MOLP-8 cells (DSMZ, ACC 569) were seeded at a concentration of 4000 cells/well in 100 μl of growth medium (RPMI1640, 20% FCS) on 96-well microtitre plates.
as §2, §3

SMILES strings stand for the structures.

Regarding `C[C@@H]1C(=O)N(C)c2ccc(Nc3cccc(S(C)(=O)=O)c3)nc2N1C1CCOCC1` [Example 1, (3R)-1,3-Dimethyl-6-{[3-(methylsulphonyl)phenyl]amino}-4-(tetrahydro-2H-pyran-4-yl)-3,4-dihydropyrido[2,3-b]pyrazin-2(1H)-one], the IC50 was 191 nM in the experiment on MOLM-13 cells, 75 nM in experiment [1] and 204 nM with MOLP-8 cells.

In the case of `Cc1ccc(S(C)(=O)=O)cc1Nc1ccc2c(n1)N(C1CCOCC1)[C@H](C)C(=O)N2C` [Example 2, (3R)-1,3-Dimethyl-6-{[2-methyl-5-(methylsulphonyl)phenyl]amino}-4-(tetrahydro-2H-pyran-4-yl)-3,4-dihydropyrido[2,3-b]pyrazin-2(1H)-one], the values for the IC50 (in the experiment on MOLM-13 cells; in experiment [1]; in the experiment on MOLP-8 cells) were 238 nM, 83 nM and 236 nM, respectively.

In the case of `COc1ccc(S(C)(=O)=O)cc1Nc1ccc2c(n1)N(C1CCOCC1)[C@H](C)C(=O)N2C` [Example 3, (3R)-6-{[2-Methoxy-5-(methylsulphonyl)phenyl]amino}-1,3-dimethyl-4-(tetrahydro-2H-pyran-4-yl)-3,4-dihydropyrido[2,3-b]pyrazin-2(1H)-one], the IC50 with MOLM-13 cells turned out to be 175 nM; in experiment [1], 79 nM; in the experiment with MOLP-8 cells, 103 nM.

With `C[C@@H]1C(=O)N(C)c2ccc(Nc3ccc4c(c3)S(=O)(=O)CC4)nc2N1C1CCOCC1` [Example 4, (3R)-6-[(1,1-Dioxido-2,3-dihydro-1-benzothiophen-6-yl)amino]-1,3-dimethyl-4-(tetrahydro-2H-pyran-4-yl)-3,4-dihydropyrido[2,3-b]pyrazin-2(1H)-one], the IC50 in the experiment with MOLM-13 cells was 289 nM; in experiment [1] it was 93 nM; with MOLP-8 cells, 221 nM.

As to `C[C@@H]1C(=O)N(C)c2ccc(Nc3cccc(S(C)(=O)=O)c3)nc2N1C1CCCCCC1` [Example 5, (3R)-4-Cycloheptyl-1,3-dimethyl-6-{[3-(methylsulphonyl)phenyl]amino}-3,4-dihydropyrido[2,3-b]pyrazin-2(1H)-one], the IC50 was determined as 651 nM in the experiment with MOLM-13 cells, 152 nM in experiment [1] and 560 nM with MOLP-8 cells.

Consider `C[C@@H]1C(=O)N(C)c2ccc(Nc3cccc(S(=O)(=O)C4CC4)c3)nc2N1C1CCOCC1` [Example 6, (3R)-6-{[3-(Cyclopropylsulphonyl)phenyl]amino}-1,3-dimethyl-4-(tetrahydro-2H-pyran-4-yl)-3,4-dihydropyrido[2,3-b]pyrazin-2(1H)-one], for which the IC50 amounted to 89 nM in the experiment with MOLM-13 cells, 24 nM in experiment [1] and 67 nM in the experiment on MOLP-8 cells.

Take `CC(C)S(=O)(=O)c1cccc(Nc2ccc3c(n2)N(C2CCOCC2)[C@H](C)C(=O)N3C)c1` [Example 7, (3R)-6-{[3-(Isopropylsulphonyl)phenyl]amino}-1,3-dimethyl-4-(tetrahydro-2H-pyran-4-yl)-3,4-dihydropyrido[2,3-b]pyrazin-2(1H)-one]: the IC50 in the experiment with MOLM-13 cells worked out at 111 nM; in experiment [1] it was 28 nM; with MOLP-8 cells, 75 nM.

Regarding `COc1ccc(S(=O)(=O)C2CC2)cc1Nc1ccc2c(n1)N(C1CCOCC1)[C@H](C)C(=O)N2C` [Example 8, (3R)-6-{[5-(Cyclopropylsulphonyl)-2-methoxyphenyl]amino}-1,3-dimethyl-4-(tetrahydro-2H-pyran-4-yl)-3,4-dihydropyrido[2,3-b]pyrazin-2(1H)-one], the IC50 with MOLM-13 cells turned out to be 24 nM; in experiment [1], 23 nM; in the experiment on MOLP-8 cells, 23 nM.

For the molecule `COc1ccc(S(=O)(=O)C(C)C)cc1Nc1ccc2c(n1)N(C1CCOCC1)[C@H](C)C(=O)N2C` [Example 9, (3R)-6-{[5-(Isopropylsulphonyl)-2-methoxyphenyl]amino}-1,3-dimethyl-4-(tetrahydro-2H-pyran-4-yl)-3,4-dihydropyrido[2,3-b]pyrazin-2(1H)-one], the figures for the IC50 (in the experiment on MOLM-13 cells; in experiment [1]; with MOLP-8 cells) were 42 nM, 25 nM and 38 nM, respectively.

Regarding `C[C@@H]1C(=O)N(C)c2ccc(Nc3cccc(S(C)(=O)=O)c3)nc2N1C1CCN(C)CC1` [Example 11, (3R)-1,3-Dimethyl-4-(1-methylpiperidin-4-yl)-6-{[3-(methylsulphonyl)phenyl]amino}-3,4-dihydropyrido[2,3-b]pyrazin-2(1H)-one], the IC50 in the experiment on MOLM-13 cells is 188 nM; in experiment [1], 94 nM; with MOLP-8 cells it was 167 nM.

As for `COc1ccc(S(=O)(=O)C2CC2)cc1Nc1ccc2c(n1)N(C1CCN(C)CC1)[C@H](C)C(=O)N2C` [Example 12, (3R)-6-{[5-(Cyclopropylsulphonyl)-2-methoxyphenyl]amino}-1,3-dimethyl-4-(1-methylpiperidin-4-yl)-3,4-dihydropyrido[2,3-b]pyrazin-2(1H)-one], the IC50 was 20 nM in the experiment with MOLM-13 cells, 19 nM in experiment [1] and 22 nM in the experiment on MOLP-8 cells.

With `COc1ccc(S(=O)(=O)C(C)C)cc1Nc1ccc2c(n1)N(C1CCN(C)CC1)[C@H](C)C(=O)N2C` [Example 13, (3R)-6-{[5-(Isopropylsulphonyl)-2-methoxyphenyl]amino}-1,3-dimethyl-4-(1-methylpiperidin-4-yl)-3,4-dihydropyrido[2,3-b]pyrazin-2(1H)-one], the IC50 was found to be 15 nM with MOLM-13 cells, 16 nM in experiment [1] and 15 nM in the experiment on MOLP-8 cells.

Turning to `COc1ccc(S(C)(=O)=O)cc1Nc1ccc2c(n1)N(C(C)C)[C@H](C)C(=O)N2C` [Example 14, (3R)-4-Isopropyl-6-{[2-methoxy-5-(methylsulphonyl)phenyl]amino}-1,3-dimethyl-3,4-dihydropyrido[2,3-b]pyrazin-2(1H)-one], the IC50 is 205 nM in the experiment on MOLM-13 cells, 173 nM in experiment [1] and 174 nM in the experiment on MOLP-8 cells.

For the molecule `COc1ccc(S(=O)(=O)C2CC2)cc1Nc1ccc2c(n1)N(C(C)C)[C@H](C)C(=O)N2C` [Example 15, (3R)-6-{[5-(Cyclopropylsulphonyl)-2-methoxyphenyl]amino}-4-isopropyl-1,3-dimethyl-3,4-dihydropyrido[2,3-b]pyrazin-2(1H)-one], the IC50 in the experiment on MOLM-13 cells was 149 nM; in experiment [1] it was 73 nM; with MOLP-8 cells, 118 nM.

For the molecule `COc1ccc(S(=O)(=O)C(C)C)cc1Nc1ccc2c(n1)N(C(C)C)[C@H](C)C(=O)N2C` [Example 16, (3R)-4-Isopropyl-6-{[5-(isopropylsulphonyl)-2-methoxyphenyl]amino}-1,3-dimethyl-3,4-dihydropyrido[2,3-b]pyrazin-2(1H)-one], the IC50 amounted to 184 nM in the experiment with MOLM-13 cells, 88 nM in experiment [1] and 135 nM in the experiment on MOLP-8 cells.

Take `CC1C(=O)N(C)c2ccc(Nc3cccc(S(C)(=O)=O)c3)nc2N1c1ccccc1` (stereo not drawn) [Example 17, 1,3-Dimethyl-6-{[3-(methylsulphonyl)phenyl]amino}-4-phenyl-3,4-dihydropyrido[2,3-b]pyrazin-2(1H)-one]: the IC50 in the experiment on MOLM-13 cells was 1410 nM; in experiment [1] it was 303 nM; in the experiment with MOLP-8 cells it was 1060 nM.

With `Cc1cc(Nc2ccc3c(n2)N(C2CCOCC2)[C@H](C)C(=O)N3C)ccn1` [Example 42, (3R)-1,3-Dimethyl-6-[(2-methylpyridin-4-yl)amino]-4-(tetrahydro-2H-pyran-4-yl)-3,4-dihydropyrido[2,3-b]pyrazin-2(1H)-one], the IC50 in the experiment with MOLM-13 cells worked out at 686 nM; in experiment [1], 228 nM; in the experiment on MOLP-8 cells it was 436 nM.

Take `C[C@@H]1C(=O)N(C)c2ccc(Nc3cccc(C(F)(F)F)c3)nc2N1C1CCOCC1` [Example 43, (3R)-1,3-Dimethyl-4-(tetrahydro-2H-pyran-4-yl)-6-{[3-(trifluoromethyl)phenyl]amino}-3,4-dihydropyrido[2,3-b]pyrazin-2(1H)-one]: the IC50 worked out at 1220 nM with MOLM-13 cells, 321 nM in experiment [1] and 911 nM in the experiment on MOLP-8 cells.

Values taken from US20170121322A1, “BET-PROTEIN INHIBITING 3,4-DIHYDROPYRIDO[2,3-B]PYRAZINONES WITH META-SUBSTITUTED AROMATIC AMINO- OR ETHER GROUPS” (Bayer Pharma Aktiengesellschaft, priority 2014, published 2017).
